Experimental findings from patent publication US10028938B2, “Antiviral agents and uses thereof” (Griffith University, priority 2014, dated 2018) are described below.

Test [1] concerns the target T1, hPIV-3 HN (UniProt P08492).
T1 sequence (P08492 1-572): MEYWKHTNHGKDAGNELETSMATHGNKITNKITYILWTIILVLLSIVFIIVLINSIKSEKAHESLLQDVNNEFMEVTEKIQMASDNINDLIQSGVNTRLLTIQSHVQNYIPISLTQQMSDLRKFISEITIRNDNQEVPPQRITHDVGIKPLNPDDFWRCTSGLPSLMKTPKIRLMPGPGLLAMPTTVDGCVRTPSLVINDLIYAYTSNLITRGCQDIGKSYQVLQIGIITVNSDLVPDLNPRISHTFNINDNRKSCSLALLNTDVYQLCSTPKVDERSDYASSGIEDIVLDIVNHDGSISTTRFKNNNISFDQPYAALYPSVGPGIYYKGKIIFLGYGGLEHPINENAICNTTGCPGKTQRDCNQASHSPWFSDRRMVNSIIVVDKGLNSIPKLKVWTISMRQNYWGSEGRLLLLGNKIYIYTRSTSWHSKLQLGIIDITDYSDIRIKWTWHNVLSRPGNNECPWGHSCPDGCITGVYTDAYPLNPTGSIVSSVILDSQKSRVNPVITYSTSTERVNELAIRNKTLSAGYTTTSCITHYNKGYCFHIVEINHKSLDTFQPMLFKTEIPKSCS
In kind it is biochemical, hPIV-3 (strain C-243). Also on record: rows headed: NI Mean IC50; hPIV-3 HN; 3 independent experiments; Ki; Km value for MUN; other: whole hPIV-3 virus, [I]=0; fold improvement in NI assay; other: versus 6; hPIV-3 HN NI IC50; other: text; other: text, unit given as M.

The subject of test [2] is hPIV-3. Briefly: In situ ELISA virus growth inhibition. The class given is cell-based, hPIV-3 (strain C-243).
The test system of test [3] is hPIV-3. Description: Virus growth inhibition assay, titration of progeny virus (focus forming assay) in LLC-MK2 cells. The class given is cell-based, hPIV-3 (strain C-243). The note with it: 2 μM inhibitor, 48 h, LLC-MK2 cells, low MOI.
Test [4] deals with T1, hPIV-3 HN. In kind it is biochemical, hPIV-3 (strain C-243). Also on record: rows headed: NI Mean IC50; hPIV-3 HN; 3 independent experiments; Ki; Km value for MUN; other: whole hPIV-3 virus, [I]=0; fold improvement in NI assay; other: versus 6; hPIV-3 HN NI IC50; other: text; other: text, unit given as M. This is another data set of the same source.
The target of test [5] is T1, hPIV-3 HN. In kind it is biochemical, hPIV-3 (strain C-243). The arrangement: rows headed: NI hPIV-3 IC50. The note with it: read-out: NI hPIV-3 IC50.
In test [6] the target is T1, hPIV-3 HN. The class given is biochemical, hPIV-3 (strain C-243). The arrangement: rows headed: HI Mean IC50; hPIV-3 HN; 3 independent experiments; fold improvement in HI assay; other: versus 6; hPIV-3 HN HI IC50; other: text; other: text, unit given as M.

Like-named read-outs stand apart in the source and are kept apart here.

With `CC(C)C(=O)N[C@H]1[C@H]([C@H](O)[C@H](O)CO)OC(C(=O)O)=C[C@@H]1N=[N+]=[N-]` [Compound 6, BCX 2798, reference compound], the inhibitory constant (Ki) at hPIV-3 HN [1] was determined as 16 µM. Besides, the IC50 is 54.6 to 131 µM with hPIV-3 [2] (LLC-MK2, A549 and NHBE cells, read-out: Virus growth inhibition IC50, range over all three cell lines); 54.6 ± 3.8 µM in the test on hPIV-3 [2] (LLC-MK2 cells, read-out: Virus growth IC50 (in situ ELISA)); 79.3 ± 1 µM in the test with hPIV-3 [2] (NHBE cells, read-out: Virus growth IC50 (in situ ELISA)); 130 µM with hPIV-3 [2] (Table 4, A549 cells, hPIV-3, read-out: Cell-based ELISA IC50); 21.5 µM on hPIV-3 HN [4] (read-out: NI Mean IC50); 21.5 µM on hPIV-3 HN [4] (read-out: hPIV-3 HN NI IC50). Also, the IC50 is 18 µM at hPIV-3 HN [5], 16.1 µM at hPIV-3 HN [6] (read-out: HI Mean IC50) and 16.1 µM on hPIV-3 HN [6] (read-out: hPIV-3 HN HI IC50). Also, the “Virus growth inhibition (reduction in virus titre)” value in the test with hPIV-3 [3] is 14%.
